The term IC50 denotes the concentration at which inhibition is half-maximal.

These results are taken from patent US11938190B2, “Herbal extracts for treatment of herpesvirus infections” (KAMEDIS LTD., priority 2018, dated 2024).

Structures are written as SMILES. Converted amounts (≈) assume the structure as drawn.

The experiment concerns Herpes Simplex Virus type 1 (HSV-1). As to the kind of experiment: microbe, parasite or virus in culture. The class given is cell-based. The following applies: Human alphaherpesvirus 1; Example 2; acyclovir dose-response curve; EYFP-HSV-1, Vero cells.

With `Nc1nc2c(ncn2COCCO)c(=O)[nH]1` [Acyclovir], inhibition was half-maximal at 0.126 ± 0.014 µg/mL (≈ 0.559 µM) (IC50).
